# In patent US11827629B2, “CDGSH iron sulfur domain 2 activators and use thereof” (National Health Research Institutes, priority 2021, dated 2023):
# System: Cisd2 promoter with firefly luciferase reporter
# Assay: Cisd2-luciferase reporter assay in HEK293-CISD2 cells
# Assay type: cell-based
# Conditions: Homo sapiens, 24 hours incubation, luciferase luminescence
# Description: A typical in vitro screening method includes the following steps: (i) obtaining an initial level of Cisd2 in a batch of human embryonic kidney cells 293 (HEK-293 cells) that express Cisd2, (ii) treating the batch of HEK-293 cells with a compound of this invention, and (iii) analyzing the level of Cisd2 after the treatment, thereby determining the potency of the compound as a Cisd2 activator.
# Compounds 1-109 were tested for increasing the level of Cisd2 in human embryonic kidney cells 293 (HEK293), a transfected cell line expressing Cisd2, using the Cisd2-luciferase reporter assay as follows.
# The transfected HEK293 cells stably expressed Cisd2 promoter with firefly luciferase reporter (HEK293-CISD2). They were kept in Dulbecco's modified Eagle's medium (DMEM) (Gibco, New York, NY, USA). Culture medium was supplemented with 10% heat-inactivated fetal bovine serum (FBS), 2 mM L-Glutamine, 1 mM sodium pyruvate, 0.1% MEM Non-Essential Amino Acids, 1 ug/ml puromycin and 1% penicillin/streptomycin (HyClone, Logan, UT, USA). The cells were maintained at 37° C. in an incubator (Thermo Fisher Scientific, New York, NY, USA) with an atmosphere of 5% CO2. The stably transfected cells were seeded in 384-well plates at a density of 3×10^3 cells/well. After incubation with tested compounds at 37° C. for 24 hours, ONE-Glo™ Luciferase Assay System (Promega, Madison, WI, USA) was added at room temperature for 5 minutes to detect any luciferase activity. Luminescence intensity was registered using plate reader Victor^2V (PerkinElmer, Boston, MA, USA).
# EC50 values in this table are presented in three classes, i.e., A: <1 μM, B: 1 μM-5 μM, and C: 5 μM-10 μM.
row,Compound,EC50 [nM]
1,"O=C(CS(=O)(=O)c1cccc(F)c1)N1Cc2ccccc2C1 [Compound 86, 1-(1,3-dihydro-2H-isoindol-2-yl)-2-[(3-fluorophenyl)sulfonyl]ethanone]",< 1000
2,"O=C(CS(=O)(=O)c1ccc(F)cc1)N1Cc2ccccc2C1 [Compound 87, 1-(1,3-dihydro-2H-isoindol-2-yl)-2-[(4-fluorophenyl)sulfonyl]ethanone]",< 1000
3,"O=C(CS(=O)(=O)c1ccc(Cl)s1)N1Cc2ccccc2C1 [Compound 88, 2-[(5-chlorothiophen-2-yl)sulfonyl]-1-(1,3-dihydro-2H-isoindol-2-yl)ethanone]",< 1000
4,"O=C(CS(=O)(=O)c1cc(F)ccc1F)N1Cc2ccccc2C1 [Compound 89, 2-[(2,5-difluorophenyl)sulfonyl]-1-(1,3-dihydro-2H-isoindol-2-yl)ethanone]",5000 to 10000
5,"O=C(CS(=O)(=O)c1ccccc1F)N1Cc2ccccc2C1 [Compound 90, 1-(1,3-dihydro-2H-isoindol-2-yl)-2-[(2-fluorophenyl)sulfonyl]ethanone]",< 1000
6,"O=C(CS(=O)(=O)c1ccc(F)cc1F)N1Cc2ccccc2C1 [Compound 91, 2-[(2,4-difluorophenyl)sulfonyl]-1-(1,3-dihydro-2H-isoindol-2-yl)ethanone]",< 1000
7,"O=C(CS(=O)(=O)c1ccccc1F)N1Cc2ccc(F)cc2C1 [Compound 92, 1-(5-fluoro-1,3-dihydro-2H-isoindol-2-yl)-2-[(2-fluorophenyl)sulfonyl]ethanone]",< 1000
8,"O=C(CS(=O)(=O)c1ccccc1)N1Cc2ccc(F)cc2C1 [Compound 93, 1-(5-fluoro-1,3-dihydro-2H-isoindol-2-yl)-2-(phenylsulfonyl)ethanone]",< 1000
9,"Cc1csc(S(=O)(=O)CC(=O)N2Cc3ccccc3C2)n1 [Compound 94, 1-(1,3-dihydro-2H-isoindol-2-yl)-2-[(4-methyl-1,3-thiazol-2-yl)sulfonyl]ethanone]",< 1000
10,"O=C(CS(=O)(=O)c1ccccc1F)N1Cc2cc(F)c(F)cc2C1 [Compound 95, 1-(5,6-difluoro-1,3-dihydro-2H-isoindol-2-yl)-2-[(2-fluorophenyl)sulfonyl]ethanone]",< 1000
11,"O=C(CS(=O)(=O)c1ccccc1)N1Cc2cccc(F)c2C1 [Compound 96, 1-(4-fluoro-1,3-dihydro-2H-isoindol-2-yl)-2-(phenylsulfonyl)ethanone]",< 1000
12,"O=C(CS(=O)(=O)c1cccc(F)n1)N1Cc2ccccc2C1 [Compound 97, 1-(1,3-dihydro-2H-isoindol-2-yl)-2-[(6-fluoropyridin-2-yl)sulfonyl]ethanone]",< 1000
13,"O=C(CS(=O)(=O)c1cccc(Cl)c1Cl)N1Cc2ccccc2C1 [Compound 98, 2-[(2,3-dichlorophenyl)sulfonyl]-1-(1,3-dihydro-2H-isoindol-2-yl)ethanone]",< 1000
14,"O=C(CS(=O)(=O)c1ccccc1Cl)N1Cc2ccccc2C1 [Compound 99, 2-[(2-chlorophenyl)sulfonyl]-1-(1,3-dihydro-2H-isoindol-2-yl)ethanone]",< 1000
15,"O=C(CS(=O)(=O)c1ccccn1)N1Cc2ccc(N3CCOCC3)cc2C1 [Compound 100, 1-[5-(morpholin-4-yl)-1,3-dihydro-2H-isoindol-2-yl]-2-(pyridin-2-ylsulfonyl)ethanone]",1000 to 5000
16,"O=C(CS(=O)(=O)c1ccc(F)cn1)N1Cc2ccccc2C1 [Compound 101, 1-(1,3-dihydro-2H-isoindol-2-yl)-2-[(5-fluoropyridin-2-yl)sulfonyl]ethanone]",< 1000
17,"Cn1ccc(S(=O)(=O)CC(=O)N2Cc3ccccc3C2)n1 [Compound 102, 1-(1,3-dihydro-2H-isoindol-2-yl)-2-[(1-methyl-1H-pyrazol-3-yl)sulfonyl]ethanone]",1000 to 5000
18,"O=C(CS(=O)(=O)c1ncccc1F)N1Cc2ccccc2C1 [Compound 103, 1-(1,3-dihydro-2H-isoindol-2-yl)-2-[(3-fluoropyridin-2-yl)sulfonyl]ethanone]",< 1000
19,"O=C(CS(=O)(=O)c1ncco1)N1Cc2ccccc2C1 [Compound 104, 1-(1,3-dihydro-2H-isoindol-2-yl)-2-(1,3-oxazol-2-ylsulfonyl)ethanone]",< 1000
20,"O=C(CS(=O)(=O)c1ccc(C(F)F)s1)N1Cc2ccccc2C1 [Compound 105, 2-{[5-(difluoromethyl)thiophen-2-yl]sulfonyl}-1-(1,3-dihydro-2H-isoindol-2-yl)ethanone]",5000 to 10000
21,"O=C(CCS(=O)(=O)c1ccccc1Cl)N1Cc2ccccc2C1 [Compound 106, 3-[(2-chlorophenyl)sulfonyl]-1-(1,3-dihydro-2H-isoindol-2-yl)propan-1-one]",< 1000
22,"O=C(CCS(=O)(=O)c1ccccc1)N1Cc2ccccc2C1 [Compound 107, 1-(1,3-dihydro-2H-isoindol-2-yl)-3-(phenylsulfonyl)propan-1-one]",< 1000
23,"O=C(CCS(=O)(=O)c1cccc(F)n1)N1Cc2ccccc2C1 [Compound 108, 1-(1,3-dihydro-2H-isoindol-2-yl)-3-[(6-fluoropyridin-2-yl)sulfonyl]propan-1-one]",1000 to 5000
24,"O=C(CS(=O)(=O)c1ncco1)N1Cc2ccc(F)cc2C1 [Compound 109, 1-(5-fluoro-1,3-dihydro-2H-isoindol-2-yl)-2-(1,3-oxazol-2-ylsulfonyl)ethanone]",< 1000
